From paper PMC5483587 (Frontiers in Microbiology, 2017)

System: T1, LkAlt1
T1 construct: ORF amplified from genomic DNA into pET-28a(+) (NheI/XhoI), His-tagged, E. coli Rosetta2(DE3), Ni-NTA; tag removal not mentioned; about 50 kDa on SDS-PAGE
Assay: initial velocities at […] nm (lactate dehydrogenase/NADH coupled), global ping-pong fit
Format: biochemical, Lachancea kluyveri
Settings: alanine varied 1-20 mM, α-ketoglutarate 0.05-1.50 mM; Tris-HCl about pH 7, 25°C; pyridoxal 5'-phosphate; ka/kb assigned to substrates by concentration ranges and text

Row | ka | Km | SMILES
1 | 4.88 mM |  | C[C@H](N)C(=O)O [alanine]
2 |  | 220 µM | O=C(O)CCC(=O)C(=O)O [α-ketoglutarate]
